Test results as given in paper PMC8909834, “An Orally Bioavailable and Highly Efficacious Inhibitor of CDK9/FLT3 for the Treatment of Acute Myeloid Leukemia” (Cancers, 2022).

Experiments:
Assay in all cases: Kinase Hotspot radiolabel assay
Type in all cases: biochemical
Settings in all cases: read-out: % Residual Activity
AKT2 = target: T1, AKT2 (Homo sapiens, UniProt P31751)
T1 construct: purchased Reaction Biology Corporation (Kinase HotSpot)
How it was run: (§1)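 Radiometric Hotspot screen: single test concentration of 1 µM, 369 kinases. Ki follow-up was applied only where inhibition exceeded 90%.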

CDK1/cyclin E = target: T2, CDK1/cyclin E (Homo sapiens, UniProt P06493)
T2 construct: purchased Reaction Biology Corporation (Kinase HotSpot)
How it was run: as §1

CAMKK2 = target: T3, CAMKK2 (Homo sapiens, UniProt Q96RR4)
T3 construct: purchased Reaction Biology Corporation (Kinase HotSpot)
How it was run: as §1

BMPR2 = target: T4, BMPR2 (Homo sapiens, UniProt Q13873)
T4 construct: purchased Reaction Biology Corporation (Kinase HotSpot)
How it was run: as §1

ZAP70 = target: T5, ZAP70 (Homo sapiens, UniProt P43403)
T5 construct: purchased Reaction Biology Corporation (Kinase HotSpot)
T5 sequence (P43403 whole entry): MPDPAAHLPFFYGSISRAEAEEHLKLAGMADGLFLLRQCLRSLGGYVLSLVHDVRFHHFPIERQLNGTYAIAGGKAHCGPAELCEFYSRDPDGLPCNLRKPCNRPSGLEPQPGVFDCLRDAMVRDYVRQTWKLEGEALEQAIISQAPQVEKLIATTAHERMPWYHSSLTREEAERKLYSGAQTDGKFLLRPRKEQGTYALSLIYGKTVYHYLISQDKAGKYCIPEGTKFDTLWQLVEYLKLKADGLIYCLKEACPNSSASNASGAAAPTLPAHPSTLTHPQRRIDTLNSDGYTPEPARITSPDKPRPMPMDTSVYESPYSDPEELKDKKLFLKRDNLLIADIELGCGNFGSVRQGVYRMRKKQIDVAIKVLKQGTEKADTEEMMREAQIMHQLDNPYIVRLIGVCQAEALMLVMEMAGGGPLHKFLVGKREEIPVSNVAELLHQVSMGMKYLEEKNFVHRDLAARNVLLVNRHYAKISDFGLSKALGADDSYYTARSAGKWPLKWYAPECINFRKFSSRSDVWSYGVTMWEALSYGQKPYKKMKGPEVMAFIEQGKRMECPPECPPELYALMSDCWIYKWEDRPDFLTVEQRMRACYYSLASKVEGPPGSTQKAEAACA
How it was run: as §1

SNARK/NUAK2 = target: T6, SNARK/NUAK2 (Homo sapiens, UniProt Q9H093)
T6 construct: purchased Reaction Biology Corporation (Kinase HotSpot)
How it was run: as §1

CDK19/cyclin C = target: T7, CDK19/cyclin C (Homo sapiens, UniProt Q9BWU1)
T7 construct: purchased Reaction Biology Corporation (Kinase HotSpot)
T7 sequence (Q9BWU1 whole entry): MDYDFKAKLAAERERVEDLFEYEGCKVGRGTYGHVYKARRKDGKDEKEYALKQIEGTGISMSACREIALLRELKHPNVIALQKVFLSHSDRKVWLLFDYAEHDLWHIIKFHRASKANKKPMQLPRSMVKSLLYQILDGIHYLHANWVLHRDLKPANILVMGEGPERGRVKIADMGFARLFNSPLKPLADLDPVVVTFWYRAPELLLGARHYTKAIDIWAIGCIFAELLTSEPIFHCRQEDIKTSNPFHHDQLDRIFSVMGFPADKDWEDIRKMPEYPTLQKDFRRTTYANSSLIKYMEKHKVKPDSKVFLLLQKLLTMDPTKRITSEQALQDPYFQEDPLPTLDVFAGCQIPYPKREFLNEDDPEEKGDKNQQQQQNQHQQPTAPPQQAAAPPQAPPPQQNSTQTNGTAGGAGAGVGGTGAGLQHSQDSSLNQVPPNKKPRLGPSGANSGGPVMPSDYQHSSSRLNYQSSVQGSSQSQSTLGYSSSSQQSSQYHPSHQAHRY
T7 sequence (P24863 whole entry partner): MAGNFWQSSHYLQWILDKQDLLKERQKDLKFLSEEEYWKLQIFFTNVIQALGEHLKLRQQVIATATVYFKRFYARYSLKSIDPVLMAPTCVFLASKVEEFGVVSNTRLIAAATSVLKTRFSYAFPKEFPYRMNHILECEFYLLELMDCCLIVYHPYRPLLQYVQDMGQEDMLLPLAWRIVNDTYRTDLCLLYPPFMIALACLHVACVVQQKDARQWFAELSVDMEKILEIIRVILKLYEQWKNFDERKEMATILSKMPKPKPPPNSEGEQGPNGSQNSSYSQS
How it was run: as §1

PIM2 = target: T8, PIM2 (Homo sapiens, UniProt Q9P1W9)
T8 construct: purchased Reaction Biology Corporation (Kinase HotSpot)
T8 sequence (Q9P1W9 whole entry): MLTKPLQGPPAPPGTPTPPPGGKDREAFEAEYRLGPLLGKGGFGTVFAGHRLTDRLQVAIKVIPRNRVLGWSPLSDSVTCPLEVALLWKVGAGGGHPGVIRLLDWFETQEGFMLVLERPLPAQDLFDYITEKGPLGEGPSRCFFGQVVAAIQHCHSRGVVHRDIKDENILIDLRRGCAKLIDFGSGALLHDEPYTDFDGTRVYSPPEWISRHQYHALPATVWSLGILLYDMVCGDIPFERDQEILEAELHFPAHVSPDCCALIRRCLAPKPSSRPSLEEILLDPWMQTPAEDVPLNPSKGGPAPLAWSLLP
How it was run: as §1

HIPK4 = target: T9, HIPK4 (Homo sapiens, UniProt Q8NE63)
T9 construct: purchased Reaction Biology Corporation (Kinase HotSpot)
How it was run: as §1

CDK2/cyclin O = target: T10, CDK2/cyclin O (Homo sapiens, UniProt P24941)
T10 construct: purchased Reaction Biology Corporation (Kinase HotSpot)
How it was run: as §1

PKD2/PRKD2 = target: T11, PKD2/PRKD2 (Homo sapiens, UniProt Q9BZL6)
T11 construct: purchased Reaction Biology Corporation (Kinase HotSpot)
How it was run: as §1

TESK2 = target: T12, TESK2 (Homo sapiens, UniProt Q96S53)
T12 construct: purchased Reaction Biology Corporation (Kinase HotSpot)
How it was run: as §1

STK22D/TSSK1 = target: T13, STK22D/TSSK1 (Homo sapiens, UniProt Q9BXA7)
T13 construct: purchased Reaction Biology Corporation (Kinase HotSpot)
How it was run: as §1

PKCepsilon = target: T14, PKCepsilon (Homo sapiens, UniProt Q02156)
T14 construct: purchased Reaction Biology Corporation (Kinase HotSpot)
How it was run: as §1

c-Src = target: T15, c-Src (Homo sapiens, UniProt P12931)
T15 construct: purchased Reaction Biology Corporation (Kinase HotSpot)
How it was run: as §1

JNK1 = target: T16, JNK1 (Homo sapiens, UniProt P45983)
T16 construct: purchased Reaction Biology Corporation (Kinase HotSpot)
T16 sequence (P45983 whole entry): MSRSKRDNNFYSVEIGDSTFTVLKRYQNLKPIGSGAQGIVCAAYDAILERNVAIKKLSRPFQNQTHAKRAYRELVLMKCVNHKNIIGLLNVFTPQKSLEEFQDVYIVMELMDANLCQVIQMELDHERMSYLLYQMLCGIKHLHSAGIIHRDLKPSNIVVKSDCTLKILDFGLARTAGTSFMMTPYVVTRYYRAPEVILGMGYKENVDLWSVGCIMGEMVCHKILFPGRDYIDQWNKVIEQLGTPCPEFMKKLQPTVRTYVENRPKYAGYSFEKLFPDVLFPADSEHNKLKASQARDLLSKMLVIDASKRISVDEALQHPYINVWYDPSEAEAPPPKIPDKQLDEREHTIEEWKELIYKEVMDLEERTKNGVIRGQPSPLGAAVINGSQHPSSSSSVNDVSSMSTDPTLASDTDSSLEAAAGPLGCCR
How it was run: as §1

P38d/MAPK13 = target: T17, P38d/MAPK13 (Homo sapiens, UniProt O15264)
T17 construct: purchased Reaction Biology Corporation (Kinase HotSpot)
T17 sequence (O15264 whole entry): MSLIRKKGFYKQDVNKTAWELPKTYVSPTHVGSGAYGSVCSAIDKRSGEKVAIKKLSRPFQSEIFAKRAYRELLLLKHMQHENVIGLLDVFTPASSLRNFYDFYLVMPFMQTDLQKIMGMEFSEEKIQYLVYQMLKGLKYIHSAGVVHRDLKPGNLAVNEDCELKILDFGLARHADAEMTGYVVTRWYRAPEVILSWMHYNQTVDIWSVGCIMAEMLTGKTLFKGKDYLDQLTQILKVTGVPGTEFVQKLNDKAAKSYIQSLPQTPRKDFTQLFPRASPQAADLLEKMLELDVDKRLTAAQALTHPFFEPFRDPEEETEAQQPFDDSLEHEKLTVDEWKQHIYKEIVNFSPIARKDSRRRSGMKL
How it was run: as §1

HIPK3 = target: T18, HIPK3 (Homo sapiens, UniProt Q9H422)
T18 construct: purchased Reaction Biology Corporation (Kinase HotSpot)
How it was run: as §1

KDR/VEGFR2 = target: T19, KDR/VEGFR2 (Homo sapiens, UniProt P35968)
T19 construct: purchased Reaction Biology Corporation (Kinase HotSpot)
T19 sequence (P35968 20-1356): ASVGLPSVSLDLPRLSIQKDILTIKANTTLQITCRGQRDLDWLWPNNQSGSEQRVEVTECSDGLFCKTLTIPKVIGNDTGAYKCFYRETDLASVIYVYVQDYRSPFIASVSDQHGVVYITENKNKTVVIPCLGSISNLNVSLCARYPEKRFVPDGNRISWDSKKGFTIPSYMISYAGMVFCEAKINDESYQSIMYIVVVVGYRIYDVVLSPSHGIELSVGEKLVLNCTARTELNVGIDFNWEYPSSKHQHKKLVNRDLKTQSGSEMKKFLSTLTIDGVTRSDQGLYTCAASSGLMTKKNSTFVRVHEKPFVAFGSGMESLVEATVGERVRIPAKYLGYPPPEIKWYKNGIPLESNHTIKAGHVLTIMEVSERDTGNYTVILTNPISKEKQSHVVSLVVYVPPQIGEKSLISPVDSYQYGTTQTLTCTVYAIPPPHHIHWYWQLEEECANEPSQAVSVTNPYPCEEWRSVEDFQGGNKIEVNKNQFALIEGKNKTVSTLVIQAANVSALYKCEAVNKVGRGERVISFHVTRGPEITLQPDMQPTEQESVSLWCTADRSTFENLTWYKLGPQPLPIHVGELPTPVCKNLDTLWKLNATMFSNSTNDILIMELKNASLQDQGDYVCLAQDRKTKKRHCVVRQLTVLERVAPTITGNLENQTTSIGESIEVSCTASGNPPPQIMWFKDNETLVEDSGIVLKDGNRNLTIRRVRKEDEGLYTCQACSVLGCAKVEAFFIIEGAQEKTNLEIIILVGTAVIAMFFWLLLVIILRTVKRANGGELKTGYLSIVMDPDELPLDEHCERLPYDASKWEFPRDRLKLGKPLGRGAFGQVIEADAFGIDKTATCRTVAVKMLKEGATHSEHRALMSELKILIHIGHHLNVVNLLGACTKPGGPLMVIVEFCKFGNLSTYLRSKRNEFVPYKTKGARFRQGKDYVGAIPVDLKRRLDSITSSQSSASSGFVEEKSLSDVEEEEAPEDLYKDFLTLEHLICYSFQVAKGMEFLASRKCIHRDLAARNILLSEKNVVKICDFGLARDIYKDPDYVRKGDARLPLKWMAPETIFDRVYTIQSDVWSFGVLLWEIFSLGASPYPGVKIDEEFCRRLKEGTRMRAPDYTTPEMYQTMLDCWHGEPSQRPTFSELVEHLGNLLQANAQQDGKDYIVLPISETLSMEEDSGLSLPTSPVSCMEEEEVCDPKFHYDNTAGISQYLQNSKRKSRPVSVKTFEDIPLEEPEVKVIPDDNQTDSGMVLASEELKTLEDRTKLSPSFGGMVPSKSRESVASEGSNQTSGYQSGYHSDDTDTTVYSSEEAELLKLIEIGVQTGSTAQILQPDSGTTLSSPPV
How it was run: as §1

SIK3 = target: T20, SIK3 (Homo sapiens, UniProt Q9Y2K2)
T20 construct: purchased Reaction Biology Corporation (Kinase HotSpot)
How it was run: as §1

ALK2/ACVR1 = target: T21, ALK2/ACVR1 (Homo sapiens, UniProt Q04771)
T21 construct: purchased Reaction Biology Corporation (Kinase HotSpot)
T21 sequence (Q04771 21-509): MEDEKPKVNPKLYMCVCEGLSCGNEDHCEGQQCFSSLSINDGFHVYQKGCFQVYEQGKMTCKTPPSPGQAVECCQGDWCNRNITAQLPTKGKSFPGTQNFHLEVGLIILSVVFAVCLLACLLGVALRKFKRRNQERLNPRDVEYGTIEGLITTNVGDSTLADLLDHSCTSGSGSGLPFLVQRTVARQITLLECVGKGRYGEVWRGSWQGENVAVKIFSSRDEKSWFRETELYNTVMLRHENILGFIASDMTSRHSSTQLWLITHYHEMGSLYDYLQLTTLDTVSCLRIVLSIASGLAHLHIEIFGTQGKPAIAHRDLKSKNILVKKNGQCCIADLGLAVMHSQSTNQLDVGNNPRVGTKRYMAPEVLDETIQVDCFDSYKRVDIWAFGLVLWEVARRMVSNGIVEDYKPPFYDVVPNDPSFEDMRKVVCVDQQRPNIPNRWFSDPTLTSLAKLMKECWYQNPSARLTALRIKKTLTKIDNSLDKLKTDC
How it was run: as §1

EPHA7 = target: T22, EPHA7 (Homo sapiens, UniProt Q15375)
T22 construct: purchased Reaction Biology Corporation (Kinase HotSpot)
How it was run: as §1

FMS = target: T23, FMS (Homo sapiens, UniProt P07333)
T23 construct: purchased Reaction Biology Corporation (Kinase HotSpot)
How it was run: as §1

PAK4 = target: T24, PAK4 (Homo sapiens, UniProt O96013)
T24 construct: purchased Reaction Biology Corporation (Kinase HotSpot)
T24 sequence (O96013 whole entry): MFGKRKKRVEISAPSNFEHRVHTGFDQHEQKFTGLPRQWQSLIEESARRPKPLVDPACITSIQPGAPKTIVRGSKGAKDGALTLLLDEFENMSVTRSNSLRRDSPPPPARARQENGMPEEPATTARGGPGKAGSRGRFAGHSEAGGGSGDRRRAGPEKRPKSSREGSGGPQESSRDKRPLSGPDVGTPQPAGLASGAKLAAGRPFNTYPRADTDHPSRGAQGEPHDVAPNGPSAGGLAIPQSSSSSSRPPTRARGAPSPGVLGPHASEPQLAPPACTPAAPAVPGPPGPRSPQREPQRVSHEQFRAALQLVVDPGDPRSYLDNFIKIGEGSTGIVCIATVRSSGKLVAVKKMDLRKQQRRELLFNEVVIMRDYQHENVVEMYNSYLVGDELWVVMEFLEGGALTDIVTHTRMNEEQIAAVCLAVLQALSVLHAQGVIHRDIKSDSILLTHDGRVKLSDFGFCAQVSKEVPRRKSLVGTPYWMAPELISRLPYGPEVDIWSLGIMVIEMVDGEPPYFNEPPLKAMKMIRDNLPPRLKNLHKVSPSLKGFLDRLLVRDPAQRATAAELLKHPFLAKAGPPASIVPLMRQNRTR
How it was run: as §1

MSSK1/STK23 = target: T25, MSSK1/STK23 (Homo sapiens, UniProt Q9UPE1)
T25 construct: purchased Reaction Biology Corporation (Kinase HotSpot)
How it was run: as §1

EPHA3 = target: T26, EPHA3 (Homo sapiens, UniProt P29320)
T26 construct: purchased Reaction Biology Corporation (Kinase HotSpot)
How it was run: as §1

TESK1 = target: T27, TESK1 (Homo sapiens, UniProt Q15569)
T27 construct: purchased Reaction Biology Corporation (Kinase HotSpot)
How it was run: as §1

MYO3A = target: T28, MYO3A (Homo sapiens, UniProt Q8NEV4)
T28 construct: purchased Reaction Biology Corporation (Kinase HotSpot)
How it was run: as §1

CDK9/cyclin T2 = target: T29, CDK9/cyclin T2 (Homo sapiens, UniProt P50750)
T29 construct: purchased Reaction Biology Corporation (Kinase HotSpot)
How it was run: as §1

PHKg2 = target: T30, PHKg2 (Homo sapiens, UniProt P15735)
T30 construct: purchased Reaction Biology Corporation (Kinase HotSpot)
How it was run: as §1

Cc1cnc(N[C@H]2CC[C@H](N)CC2)nc1-c1cnc2ccc(-c3ccccc3)cn12 [CDDD11-8]
remaining activity at 1 µM (AKT2): 116%
remaining activity at 1 µM (CDK1/cyclin E): 87.5%
remaining activity at 1 µM (CAMKK2): 47.7%
remaining activity at 1 µM (BMPR2): 90.2%
remaining activity at 1 µM (ZAP70): 101%
remaining activity at 1 µM (SNARK/NUAK2): 45.2%
remaining activity at 1 µM (CDK19/cyclin C): 38%
remaining activity at 1 µM (PIM2): 94.5%
remaining activity at 1 µM (HIPK4): 52.4%
remaining activity at 1 µM (CDK2/cyclin O): 56.8%
remaining activity at 1 µM (PKD2/PRKD2): 62.7%
remaining activity at 1 µM (TESK2): 100%
remaining activity at 1 µM (STK22D/TSSK1): 93.2%
remaining activity at 1 µM (PKCepsilon): 54.7%
remaining activity at 1 µM (c-Src): 49.5%
remaining activity at 1 µM (JNK1): 105%
remaining activity at 1 µM (P38d/MAPK13): 99%
remaining activity at 1 µM (HIPK3): 125%
remaining activity at 1 µM (KDR/VEGFR2): 86.9%
remaining activity at 1 µM (SIK3): 59.9%
remaining activity at 1 µM (ALK2/ACVR1): 121%
remaining activity at 1 µM (EPHA7): 105%
remaining activity at 1 µM (FMS): 73%
remaining activity at 1 µM (PAK4): 99.7%
remaining activity at 1 µM (MSSK1/STK23): 90.8%
remaining activity at 1 µM (EPHA3): 94%
remaining activity at 1 µM (TESK1): 113%
remaining activity at 1 µM (MYO3A): 87.3%
remaining activity at 1 µM (CDK9/cyclin T2): 2.35%
remaining activity at 1 µM (PHKg2): 93.9%
